Measured values from ChEMBL document CHEMBL4825748, “Rapid Evaluation of Small Molecule Cellular Target Engagement with a Luminescent Thermal Shift Assay” (ACS Med Chem Lett, 2021).
Activity calls are given as the source filed them. No cut-off for these calls is given here.

Legend:
[1] = target: Mitogen-activated protein kinase 14 (Homo sapiens) (UniProt Q16539); experiment: Binding affinity to HiBiT-tagged MAPK14 (unknown origin) assessed as shift in melting/aggregation temperature at 10 uM by luminescence based BiTSA assay
[2] = tested on: Cellular tumor antigen p53 (Homo sapiens), P04637 [R273H]; experiment: Binding affinity to HiBiT-tagged p53 R273H mutant in human MDA-MB-468 cells assessed as p53 refolding by measuring change in melting temperature at 2.5 to 10 uM by luminescence based BiTSA assay; type: cell-based; details: dose 2.5-10 µM
[3] = target: T1, 5'-AMP-activated protein kinase subunit beta-1 (Homo sapiens) (UniProt Q9Y478); experiment: Binding affinity to HiBiT-tagged PRKAB1 (unknown origin) assessed as shift in melting/aggregation temperature by luminescence based BiTSA assay
T1 sequence (whole entry): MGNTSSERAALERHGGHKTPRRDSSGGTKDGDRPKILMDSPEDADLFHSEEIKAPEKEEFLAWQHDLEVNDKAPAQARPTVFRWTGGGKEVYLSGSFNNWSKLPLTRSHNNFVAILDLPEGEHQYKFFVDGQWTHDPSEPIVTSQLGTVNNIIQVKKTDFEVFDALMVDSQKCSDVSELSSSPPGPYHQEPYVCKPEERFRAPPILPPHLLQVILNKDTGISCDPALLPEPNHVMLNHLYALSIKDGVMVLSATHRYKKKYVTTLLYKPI

[4] = tested on: Cellular tumor antigen p53 (Homo sapiens), P04637 [R273H]; experiment: Binding affinity to HiBiT-tagged p53 R273H mutant in human MDA-MB-468 cells assessed as p53 refolding by measuring change in melting temperature at 25 to 100 uM by luminescence based BiTSA assay; type: cell-based; details: dose 25-100 µM
[5] = tested on: GTPase KRas (Homo sapiens), P01116 [G12C]; experiment: Binding affinity to KRAS G12C mutant (unknown origin) by traditional Western blot CETSA analysis
[6] = tested on: GTPase KRas (Homo sapiens), P01116 [G12C]; experiment: Binding affinity to HiBiT-tagged KRAS G12C mutant in human NCI-H358 cells assessed as stabilization by measuring luminescence signal by BiTSA-ITDR assay; type: cell-based

GTPase KRas (Homo sapiens), P01116 [G12C], sequence (P01116 whole entry G12C): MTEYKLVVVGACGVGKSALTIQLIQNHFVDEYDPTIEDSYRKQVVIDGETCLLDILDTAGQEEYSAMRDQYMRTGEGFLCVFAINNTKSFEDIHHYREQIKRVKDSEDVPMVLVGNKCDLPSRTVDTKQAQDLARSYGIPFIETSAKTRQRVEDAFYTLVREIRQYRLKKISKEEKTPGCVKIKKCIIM
Mitogen-activated protein kinase 14 (Homo sapiens), sequence (Q16539 whole entry): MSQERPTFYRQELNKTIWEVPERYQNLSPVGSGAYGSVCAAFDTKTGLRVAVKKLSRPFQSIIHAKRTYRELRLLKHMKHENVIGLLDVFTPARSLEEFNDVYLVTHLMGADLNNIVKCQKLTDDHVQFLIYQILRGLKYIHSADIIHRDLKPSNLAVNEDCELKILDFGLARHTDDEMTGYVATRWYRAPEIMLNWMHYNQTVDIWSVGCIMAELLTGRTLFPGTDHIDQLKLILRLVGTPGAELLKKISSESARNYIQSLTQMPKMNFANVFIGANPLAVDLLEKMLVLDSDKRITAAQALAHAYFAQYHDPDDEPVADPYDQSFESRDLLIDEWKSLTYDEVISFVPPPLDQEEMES

With `Cn1c(NC[C@@H](N)Cc2ccccc2)nc(-c2ccncc2)c(-c2ccc3ccccc3c2)c1=O` the Tm [1] was 12.4 °C.
With `CN(C)CCCNc1nc(CN2CCN(C(c3ccc(Cl)cc3)c3ccc(Cl)cc3)CC2)nc2ccccc12` the Activity [2] was “inactive”.
For `O[C@@H]1CO[C@H]2[C@@H]1OC[C@H]2Oc1nc2nc(-c3ccc(-c4ccccc4)cc3)c(Cl)cc2[nH]1`, the Activity [3] was “inactive”.
For `COCC1(CO)C(=O)C2CCN1CC2` (stereo unspecified), the Activity [4] was “inactive”.
`C=CC(=O)N1CCN(c2ncnc3c(F)c(-c4c(O)cccc4F)c(Cl)cc23)CC1` was tested, and the Activity [5] was “Active” and the Activity [6] was “inactive”.
